In patent US20210177828A1, “TAM FAMILY KINASE /AND CSF1R KINASE INHIBITOR AND USE THEREOF” (Nanjing Transthera Biosciences Co., Ltd., priority 2018, published 2021):

Experiments:
Mer (h) = target: T1, Mer (h) (Homo sapiens, UniProt Q12866); test: Enzymatic activity assay, Mer (h), [γ-33P]-ATP filter assay; type: biochemical; conditions: 10 μM ATP, 40 min room temperature; read-out: Inhibitory activity IC50 Mer(h)
T1 sequence (Q12866 21-999): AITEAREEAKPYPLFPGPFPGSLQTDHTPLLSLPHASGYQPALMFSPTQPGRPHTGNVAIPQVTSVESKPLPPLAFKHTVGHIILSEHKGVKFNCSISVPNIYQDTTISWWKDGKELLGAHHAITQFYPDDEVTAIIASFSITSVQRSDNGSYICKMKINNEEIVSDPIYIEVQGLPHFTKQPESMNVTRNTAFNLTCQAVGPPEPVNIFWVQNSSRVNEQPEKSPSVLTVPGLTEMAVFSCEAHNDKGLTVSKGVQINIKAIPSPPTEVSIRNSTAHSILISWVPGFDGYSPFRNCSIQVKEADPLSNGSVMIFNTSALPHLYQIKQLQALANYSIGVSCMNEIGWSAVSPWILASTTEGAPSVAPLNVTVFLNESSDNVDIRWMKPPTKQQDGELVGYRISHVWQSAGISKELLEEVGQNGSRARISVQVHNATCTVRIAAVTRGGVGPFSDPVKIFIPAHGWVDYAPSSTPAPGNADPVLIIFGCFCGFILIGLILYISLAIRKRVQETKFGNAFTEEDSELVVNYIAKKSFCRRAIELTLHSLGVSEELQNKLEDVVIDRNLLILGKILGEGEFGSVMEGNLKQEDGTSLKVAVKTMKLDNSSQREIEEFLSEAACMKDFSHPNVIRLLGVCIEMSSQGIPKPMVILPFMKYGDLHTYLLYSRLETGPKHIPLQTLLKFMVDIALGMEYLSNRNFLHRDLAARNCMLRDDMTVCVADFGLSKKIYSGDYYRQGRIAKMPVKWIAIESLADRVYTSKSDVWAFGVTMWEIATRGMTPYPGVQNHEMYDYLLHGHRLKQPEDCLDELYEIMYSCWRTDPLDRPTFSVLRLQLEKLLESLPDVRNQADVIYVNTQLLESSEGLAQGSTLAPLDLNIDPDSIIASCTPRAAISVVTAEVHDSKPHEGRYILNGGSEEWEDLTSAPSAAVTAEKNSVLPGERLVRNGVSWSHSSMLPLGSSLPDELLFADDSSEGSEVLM
Protocol: (§1) Compounds were each dissolved in 100% DMSO to prepare stock solutions with a maximum concentration of 500 μM.
(§2) Compound working solutions (50×) were prepared by diluting a compound stock solution to a final concentration of 500, 150, 50, 15, 5, 1.5, 0.5, 0.15 and 0.05 μM.
An enzyme solution with a final concentration of 3.1 nM was prepared by dissolving Mer (h) enzyme in a mixture of 8 mM MOPS (pH 7.0), 0.2 mM EDTA, 30 mM NaCl and 250 μM GGMEDIYFEFMGGKKK. A Mg/ATP mixture of 10 mM magnesium acetate and 10 μM [γ-^33P]-ATP was used to activate the enzymatic reaction.
(§3) A compound working solution was added to a 384-well plate, with final concentrations of 10,000, 3,000, 1,000, 300, 100, 30, 10, 3 and 1 nM, and then different enzymatic reaction solutions prepared according to the above conditions were added. The reaction solutions were incubated at room temperature for 40 min, and then 0.5% phosphoric acid solutions were added to terminate the reaction. 10 μL of the reaction solution was added dropwise to P30 filter paper, washed 4 times with a 0.425% phosphoric acid solution and once with methanol, and then placed in a scintillation counter for detection. Gray analysis was performed on the results with Image J software, and IC50 values were calculated with GraphPad 5.0 software.

Axl (h) = target: T2, Axl (h) (Homo sapiens, UniProt P30530); test: Enzymatic activity assay, Axl (h), [γ-33P]-ATP filter assay; type: biochemical; conditions: 10 μM ATP, 40 min room temperature; read-out: Inhibitory activity IC50 Axl(h)
T2 sequence (P30530 26-894): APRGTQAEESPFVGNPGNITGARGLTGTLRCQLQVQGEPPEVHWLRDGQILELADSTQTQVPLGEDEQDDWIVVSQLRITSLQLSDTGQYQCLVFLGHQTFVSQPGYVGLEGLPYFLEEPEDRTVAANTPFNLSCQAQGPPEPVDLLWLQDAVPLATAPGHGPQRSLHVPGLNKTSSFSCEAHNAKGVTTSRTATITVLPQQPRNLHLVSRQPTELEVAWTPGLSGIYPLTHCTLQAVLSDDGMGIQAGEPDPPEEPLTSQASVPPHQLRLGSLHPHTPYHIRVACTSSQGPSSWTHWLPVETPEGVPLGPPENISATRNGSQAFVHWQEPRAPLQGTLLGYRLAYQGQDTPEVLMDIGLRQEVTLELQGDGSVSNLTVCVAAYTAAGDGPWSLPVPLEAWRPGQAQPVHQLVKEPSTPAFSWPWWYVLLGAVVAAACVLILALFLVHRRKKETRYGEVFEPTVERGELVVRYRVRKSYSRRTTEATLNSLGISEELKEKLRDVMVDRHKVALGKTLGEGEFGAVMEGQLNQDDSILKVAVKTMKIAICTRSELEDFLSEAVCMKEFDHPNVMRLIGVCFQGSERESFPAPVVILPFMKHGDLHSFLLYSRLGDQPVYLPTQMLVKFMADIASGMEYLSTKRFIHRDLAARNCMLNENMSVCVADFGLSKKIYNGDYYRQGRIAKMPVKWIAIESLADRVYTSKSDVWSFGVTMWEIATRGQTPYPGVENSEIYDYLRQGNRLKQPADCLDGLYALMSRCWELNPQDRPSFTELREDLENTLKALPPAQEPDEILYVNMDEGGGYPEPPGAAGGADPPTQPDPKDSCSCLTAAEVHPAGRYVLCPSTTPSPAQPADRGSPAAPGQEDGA
Protocol: as §1, §2
An enzyme solution with a final concentration of 1.7 nM was prepared by dissolving Axl (h) enzyme in a mixture of 8 mM MOPS (pH 7.0), 0.2 mM EDTA and 250 μM KKSRGDYMTMQIG. A Mg/ATP mixture of 10 mM magnesium acetate and 10 μM [γ-^33P]-ATP was used to activate the enzymatic reaction.
as §3

SMILES	IC50 (Mer (h)) [nM]	IC50 (Axl (h)) [nM]
COc1cc2nccc(Oc3cnc(NC(=O)c4nn(C5CCOCC5)cc(-c5ccc(F)cc5)c4=O)nc3)c2cc1OC [Compound 33, N-(5-((6,7-dimethoxyquinolin-4-yl)oxy)pyrimidin-2-yl)-5-(4-fluorophenyl)-4-oxo-1-(tetrahydro-2H-pyran-4-yl)-1,4-dihydropyridazin-3-carboxamide]	6	27
COc1cc2nccc(Oc3cnc(NC(=O)c4nn(CC5CCOCC5)cc(-c5ccc(C)cc5)c4=O)nc3)c2cc1OC [Compound 16, N-(5-((6,7-dimethoxyquinolin-4-yl)oxy)pyrimidin-2-yl)-4-oxo-1-((tetrahydro-2H-pyran-4-yl)methyl)-5-(p-tolyl)-1,4-dihydropyridazin-3-carboxamide]	3	4
Cc1ccc(-c2cn(C3CCOCC3)nc(C(=O)Nc3ccc(Oc4ccnc5cc6c(cc45)OCCO6)cn3)c2=O)cc1 [Compound 30, N-(5-((2,3-dihydro-[1,4]dioxino[2,3-g]quinolin-9-yl)oxy)pyridin-2-yl)-4-oxo-1-(tetrahydro-2H-pyran-4-yl)-5-(p-tolyl)-1,4-dihydropyridazin-3-carboxamide]	20	39

More lines, in order of falling IC50 (Mer (h)), values ahead:

IC50 (Mer (h)) [nM]	IC50 (Axl (h)) [nM]	SMILES
48	28	Cc1ccc(-c2cn(C3CCOCC3)nc(C(=O)Nc3ccc(Oc4ccnc5cc6c(cc45)OCO6)cn3)c2=O)cc1 [Compound 29, N-(5-([1,3]dioxolo[4,5-g]quinolin-8-yloxy)pyridin-2-yl)-4-oxo-1-(tetrahydro-2H-pyran-4-yl)-5-(p-tolyl)-1,4-dihydropyridazin-3-carboxamide]
15	11	COc1cc2nccc(Oc3ccc(NC(=O)c4cn(CC5CCOCC5)c5ccccc5c4=O)nc3)c2cc1OC [Compound 25, N-(5-((6,7-dimethoxyquinolin-4-yl)oxy)pyridin-2-yl)-4-oxo-1-((tetrahydro-2H-pyran-4-yl)methyl)-1,4-dihydroquinolin-3-carboxamide]
8	20	COc1cc2nccc(Oc3ccc(NC(=O)c4cc(CC5CCOCC5)cn(-c5ccc(C)cc5)c4=O)nc3)c2cc1OC [Compound 26, N-(5-((6,7-dimethoxyquinolin-4-yl)oxy)pyridin-2-yl)-oxo-5-((tetrahydro-2H-pyran-4-yl)methyl)-1-(p-tolyl)-1,2-dihydropyridin-3-carboxamide]
1	3	COc1cc2nccc(Oc3ccc(NC(=O)c4nn(C5CCOCC5)cc(-c5ccc(C)cc5)c4=O)nc3)c2cc1OC [Compound 17, N-(5-((6,7-dimethoxyquinolin-4-yl)oxy)pyridin-2-yl)-4-oxo-1-(tetrahydro-2H-pyran-4-yl)-5-(p-tolyl)-1,4-dihydropyridazin-3-carboxamide]
